Where two headings read alike, the source gives them in different places.
Key:
Assay in all cases: biochemical
Format in all cases: binding
468 kinases [1] = target: 468 kinases (Homo sapiens, UniProt P10721, T670I/V559D); settings: KIT(V559D,T6701); read-out: % Inhibition @ 100 nM
468 kinases [2] = target: 468 kinases (Homo sapiens, UniProt Q13873); settings: BMPR2; read-out: % Inhibition @ 100 nM
468 kinases [3] = target: 468 kinases (Homo sapiens, UniProt Q02779); settings: MLK2; read-out: % Inhibition @ 100 nM
468 kinases [4] = target: 468 kinases (Homo sapiens, UniProt Q9HCP0); settings: CSNK1G1; read-out: % Inhibition @ 100 nM
468 kinases [5] = target: 468 kinases (Homo sapiens, UniProt Q15139); settings: PRKD1; read-out: % Inhibition @ 100 nM
468 kinases [6] = target: 468 kinases (Homo sapiens, UniProt P00533, L858R); settings: EGFR(L858R); read-out: % Inhibition @ 100 nM
468 kinases [7] = target: 468 kinases (Homo sapiens, UniProt P36888, D835V); settings: FLT3(D835V); read-out: % Inhibition @ 100 nM
468 kinases [8] = target: 468 kinases (Homo sapiens, UniProt P00519, F317L); settings: read-out: % Inhibition @ 100 nM
468 kinases [9] = target: 468 kinases (Homo sapiens, UniProt P10721, L576P); settings: KIT(L576P); read-out: % Inhibition @ 100 nM
468 kinases [10] = target: 468 kinases (Homo sapiens, UniProt P54762); settings: EPHB1; read-out: % Inhibition @ 100 nM
468 kinases [11] = target: 468 kinases (Homo sapiens, UniProt P00519); settings: read-out: % Inhibition @ 100 nM
468 kinases [12] = target: 468 kinases (Homo sapiens, UniProt P12931); settings: SRC; read-out: % Inhibition @ 100 nM
468 kinases [13] = target: 468 kinases (Homo sapiens, UniProt Q9H4B4); settings: PLK3; read-out: % Inhibition @ 100 nM
468 kinases [14] = target: 468 kinases (Homo sapiens, UniProt Q9UL54); settings: TAOK2; read-out: % Inhibition @ 100 nM
468 kinases [15] = target: 468 kinases (Homo sapiens, UniProt Q9BX84); settings: TRPM6; read-out: % Inhibition @ 100 nM
468 kinases [16] = target: 468 kinases (Homo sapiens, UniProt P00533); settings: EGFR; read-out: % Inhibition @ 100 nM
468 kinases [17] = target: 468 kinases (Homo sapiens, UniProt Q8NG66); settings: NEK11; read-out: % Inhibition @ 100 nM
468 kinases [18] = target: 468 kinases (Homo sapiens, UniProt P31751); settings: AKT2; read-out: % Inhibition @ 100 nM
468 kinases [19] = target: 468 kinases (Homo sapiens, UniProt P00519, F317I); settings: read-out: % Inhibition @ 100 nM
468 kinases [20] = target: 468 kinases (Homo sapiens, UniProt P29323); settings: EPHB2; read-out: % Inhibition @ 100 nM
468 kinases [21] = target: 468 kinases (Homo sapiens, UniProt P29317); settings: EPHA2; read-out: % Inhibition @ 100 nM
468 kinases [22] = target: 468 kinases (Homo sapiens, UniProt P22455); settings: FGFR4; read-out: % Inhibition @ 100 nM
468 kinases [23] = target: 468 kinases (Homo sapiens, UniProt Q9UIK4); settings: DAPK2; read-out: % Inhibition @ 100 nM
468 kinases [24] = target: 468 kinases (Homo sapiens, UniProt P41743); settings: PRKCI; read-out: % Inhibition @ 100 nM
468 kinases [25] = target: 468 kinases (Homo sapiens, UniProt P30291); settings: WEE1; read-out: % Inhibition @ 100 nM
468 kinases [26] = target: 468 kinases (Homo sapiens, UniProt P52564); settings: MEK6; read-out: % Inhibition @ 100 nM
468 kinases [27] = target: 468 kinases (Homo sapiens, UniProt Q9BQI3); settings: EIF2AK1; read-out: % Inhibition @ 100 nM
468 kinases [28] = target: 468 kinases (Homo sapiens, UniProt Q15746); settings: MYLK; read-out: % Inhibition @ 100 nM
468 kinases [29] = target: 468 kinases (Homo sapiens, UniProt P10721, D816H); settings: KIT(D816H); read-out: % Inhibition @ 100 nM
468 kinases [30] = target: 468 kinases (Homo sapiens, UniProt O43283); settings: LZK; read-out: % Inhibition @ 100 nM
468 kinases [31] = target: 468 kinases (Homo sapiens, UniProt P30530); settings: AXL; read-out: % Inhibition @ 100 nM
468 kinases [32] = target: 468 kinases (Homo sapiens, UniProt P00533, DEL746-750); settings: EGFR(E746-A750del); read-out: % Inhibition @ 100 nM

Structure (SMILES)	inhibition at 0.1 µM (468 kinases [1]) [%]	inhibition at 0.1 µM (468 kinases [2]) [%]	inhibition at 0.1 µM (468 kinases [3]) [%]	inhibition at 0.1 µM (468 kinases [4]) [%]	inhibition at 0.1 µM (468 kinases [5]) [%]	inhibition at 0.1 µM (468 kinases [6]) [%]	inhibition at 0.1 µM (468 kinases [7]) [%]	inhibition at 0.1 µM (468 kinases [8]; ABL1 (F317L)-phosphorylated) [%]	inhibition at 0.1 µM (468 kinases [9]) [%]	inhibition at 0.1 µM (468 kinases [10]) [%]	inhibition at 0.1 µM (468 kinases [11]; ABL1 -nonphosphorylated) [%]	inhibition at 0.1 µM (468 kinases [12]) [%]	inhibition at 0.1 µM (468 kinases [13]) [%]	inhibition at 0.1 µM (468 kinases [14]) [%]	inhibition at 0.1 µM (468 kinases [15]) [%]	inhibition at 0.1 µM (468 kinases [16]) [%]	inhibition at 0.1 µM (468 kinases [17]) [%]	inhibition at 0.1 µM (468 kinases [18]) [%]	inhibition at 0.1 µM (468 kinases [19]; ABL1 (F317I)-phosphorylated) [%]	inhibition at 0.1 µM (468 kinases [20]) [%]	other results
CCN(CC)CCNC(=O)c1c(C)[nH]c(/C=C2\C(=O)Nc3ccc(CCO)cc32)c1C [Compound No. 10, (Z)—N-(2-(Diethylamino)ethyl)-5-((5-(2-hydroxyethyl)-2-oxoindolin-3-ylidene)methyl)-2,4-dimethyl-1H-pyrrole-3-carboxamide]	72	0	18	0	0	0	100	22	88	0	54	15	4	18	0	0	0	4	0	3	inhibition at 0.1 µM (468 kinases [8]; ABL1 (F317L)-nonphosphorylated): 6%; inhibition at 0.1 µM (468 kinases [11]; ABL1 -phosphorylated): 44%; inhibition at 0.1 µM (468 kinases [19]; ABL1 (F317I)-nonphosphorylated): 8%; inhibition at 0.1 µM (468 kinases [21]): 2%; inhibition at 0.1 µM (468 kinases [22]): 0%; inhibition at 0.1 µM (468 kinases [23]): 0%; inhibition at 0.1 µM (468 kinases [24]): 12%; inhibition at 0.1 µM (468 kinases [25]): 15%; inhibition at 0.1 µM (468 kinases [26]): 11%; inhibition at 0.1 µM (468 kinases [27]): 0%; inhibition at 0.1 µM (468 kinases [28]): 49%; inhibition at 0.1 µM (468 kinases [29]): 6%; inhibition at 0.1 µM (468 kinases [30]): 0%; inhibition at 0.1 µM (468 kinases [31]): 88%; inhibition at 0.1 µM (468 kinases [32]): 32%
CCN(CC)CCNC(=O)c1c(C)[nH]c(/C=C2\C(=O)Nc3ccc(CCC(N)=O)cc32)c1C [Compound No. 16, (Z)-5-((5-(3-Amino-3-oxopropyl)-2-oxoindolin-3-ylidene)methyl)-N-(2-(diethylamino)ethyl)-2,4-dimethyl-1H-pyrrole-3-carboxamide]	23	50	7	16	0	32	100	20	12	8	36	6	16	21	29	64	36	0	31	10	inhibition at 0.1 µM (468 kinases [21]): 0%; inhibition at 0.1 µM (468 kinases [22]): 1%; inhibition at 0.1 µM (468 kinases [23]): 7%; inhibition at 0.1 µM (468 kinases [24]): 37%; inhibition at 0.1 µM (468 kinases [25]): 24%; inhibition at 0.1 µM (468 kinases [26]): 25%; inhibition at 0.1 µM (468 kinases [27]): 42%; inhibition at 0.1 µM (468 kinases [28]): 34%; inhibition at 0.1 µM (468 kinases [29]): 33%; inhibition at 0.1 µM (468 kinases [30]): 61%; inhibition at 0.1 µM (468 kinases [31]): 92.5%; inhibition at 0.1 µM (468 kinases [32]): 7%

— patent US12435059B2, “AMP-activated protein kinase inhibitors and methods of making and using the same” (The Regents of the University of Colorado, priority 2019, dated 2025)
